Source: patent US8679736B2, “Removal of adenine during a pathogen reduction process in whole blood or red blood cells by dilution” (Terumo BCT Biotechnologies, LLC, priority 2002, dated 2014)

System: red blood cells
Details: riboflavin and visible light, FIG. 4
Text: Red blood cells were suspended in AS3 during a pathogen reduction procedure using riboflavin and visible light. […] AS3 contains sodium chloride, dextrose, adenine, sodium phosphate, sodium citrate and citric acid.

SMILES: Cc1cc2nc3c(=O)[nH]c(=O)nc-3n(CC(O)C(O)C(O)CO)c2cc1C (stereo not shown) [riboflavin, 7,8-dimethyl-10-ribityl isoalloxazine]
- % hemolysis of red blood cells: less than 2%
